The values below come from patent US5641760A, “Method of treating candida infection” (Pence, Inc., priority 1994, dated 1997).

In test [1] the test system is Candida albicans strain #40 fimbriae (enriched fimbriae EF, 66 kDa fimbrial subunit/adhesin protein). Briefly: Thin-layer chromatography plate binding assay of fimbriae to glycosphingolipids. To be noted: 10 μg GSL per spot; 100 μg EF/ml; detected with mAb Fm16. The method, then:
Bound fimbriae on the TLC plates were visualized with a Protein G affinity-purified anti-C. albicans fimbriae monoclonal antibody, Fm16, obtained from ascites tumor in Balb/c mice as described below and a goat anti-mouse IgG alkaline phosphatase. […] (Lane 2).
The thin-layer chromatography (TLC) plate binding assay was performed as described by Baker et al. (1) with minor modifications. Aluminum-backed silica gel Si60 high performance TLC plates (Merck Kieselgel Si60, no fluorescence indicator, E. Merck, Darmstadt, Germany) were cut to produce 8×2.5 cm plates which were chromatographed with 100% methanol to the top of the plate to remove impurities and the plates were air dried. Glycosphingolipids (GSLs) (10 μg of each GSL) were loaded 1.0 cm above the base of the plate. The following glycosphingolipids purchased from Sigma Co. (St. Louis, Mo.) were used: mono-sialoganglioside (M-GM1), asialoganglioside GM1 (asialo-GM1), asialoganglioside GM2 (asialo-GM2), lactosylcerebroside (LCS), ceramide trihexoside (CTH). GSLs were separated on the TLC plates in chloroform-methanol-water (65:35:8, v/v/v) and air dried. One set of plates was sprayed with 10% sulphuric acid in ethanol and heated at 100°-150° C. for 5-10 min to char the GSLs for visual detection, and the other set was used for the fimbrial binding assay. The four corners of the plate were bent to 90° and the remainder of the assay was done with the TLC plates inverted in all solutions and at room temperature in an incubator shaker (model G25 Gyroshaker, New Brunswick Scientific, New Jersey, U.S.A.) at 20 rpm agitation. The TLC plate was blocked with 50 mM tris-hydroxy-methyl aminomethane pH 7.5 containing 150 mM NaCl (TBS), 0.25% (w/v) gelatin, 3% (w/v) BSA, 5 mM EDTA and 0.05% (v/v) Nonidet P40 in a glass petri dish for 2 hr at room temperature. The blocking solution was aspirated and 10 ml of EF (100 μg EF/ml in 100 mM TBS, pH 7.5) was then added. The fimbriae were allowed to bind to GSLs for 2 hours at room temperature. The plates were gently washed (2×5 min) with 10 ml of 100 mM TBS containing 0.1% (v/v) Tween 20 (TBST). The murine anti-EF monoclonal antibody, Fm16, was diluted 1:200 with TBST and 10 ml was added to the TLC plates. The solution was incubated for 1 hour at room temperature. Unbound antibodies were removed by washing the plates with 10 ml of TBST (2×5 min). The plate was then incubated with 10 ml of goat anti-mouse immunoglobulin G alkaline phosphatase conjugate (Jackson Laboratories) diluted 1:5,000 with TBST for 1 hour at room temperature. The plates were washed (2×5 min.) with 10 ml of TBST. The alkaline phosphatase activity was localized with Nitro Blue Tetrazolium chloride (NBT) and 5-bromo-4-chloro-3-indolyl phosphate (BCIP) dissolved in 100 mM Tris buffer, pH 9.5 containing 100 mM NaCl and 5 mM MgCl2. Color development was quenched by rinsing the TLC plate with deionized water and submerging the plate into a 150 mM EDTA solution pH 8.0 for 3-5 min. The plates were air dried, stored in plastic in the dark until they were photographed.

The test system is the same in test [2]. Nature of the test: Inhibition of fimbriae binding to immobilized glycosphingolipids by free glycosphingolipids. The method, then:
The binding specificity to GSLs was assessed in experiments in which free GSLs were tested for their abilities to inhibit binding of C. albicans fimbriae to immobilized GSLs. These experiments were carried out using the microtiter plate assay described above, and as further detailed in Example 5B. C. albicans fimbriae (50 μg/ml) were preincubated with varying concentrations of asialo-GM1 or CTH at 37° C. for an hour prior to addition into the precoated microtiter wells. In this assay, GSLs were suspended in phosphate buffered saline (PBS) at a sufficiently low concentration to prevent micellar formation. C. albicans fimbriae binding to immobilized asialo-GM1 was reduced by 78% (Diamonds, FIG. 11B) by asialo-GM1.
Polystyrene microtiter plate wells (Nunc) were coated with asialo-GM1 or ceramide trihexoside (CTH) (Sigma Chem. Co., St. Louis, Mo.). Aliquots of the GSLs (5 μg/ml resuspended in methanol) were added into the wells (100 μl/well) and the plates were incubated overnight at 4° C. The wells were washed three times with 250 μl/well of 10 mM phosphate buffered saline pH 7.4 containing 150 mM NaCl (PBS) supplemented with 0.05% (w/v) bovine serum albumin (Buffer A). Excess binding sites were blocked by the addition of 200 μl/well of 5% (w/v) BSA in PBS pH 7.4 and incubation at 37° C. for 1 hour. Wells were washed three times with 250 μl/well of buffer A. Enriched fimbriae ranging from 0 to 40 μg protein/ml in Buffer A were added to the wells (100 μl/well) and incubated for 2 hour at 37° C. Aliquots of mouse anti-EF monoclonal antibodies, Fm16 (diluted 1:500), was added to each well (100 μl) and incubated at 37° C. for 2 hours. Wells were washed 5 times with 250 μl/well of Buffer A. Antibody binding to EF was assessed by the addition of a goat anti-mouse heavy and light chain [IgG(H+L)] immunoglobulin G-peroxidase conjugates (Jackson Laboratories) to each well (100 μl/well) and incubated for 1 hour at 37° C. […] The reaction was stopped by an addition of 125 μl/well of 4 mM sodium azide and the absorbance at 405 nm was recorded. […]

On to “ceramide trihexoside [CTH, ceramide trihexoside [aGal(1-4)βGal(1-4)βGlc(1-1)Cer]]”, for which, in test [1], the “Binding of C. albicans fimbriae to glycosphingolipid on TLC plate” value was “failed to bind”. Also, the “Competition of fimbriae binding” value in test [2] (fimbriae 50 μg/ml preincubated with competitor (0 to 15 μg/ml)) is given as “No competition”.

On to “gangliotetraosylceramide: βGal(1-3)βGalNAc(1-4)βGal(1-4)βGlc(1-1)Cer [asialo-GM1]”, for which the “Binding of C. albicans fimbriae to glycosphingolipid on TLC plate” value in test [1] was “bind specifically”. For the same substance, the “Reduction of fimbriae binding to immobilized asialo-GM1” value in test [2] (fimbriae 50 μg/ml preincubated with competitor (0 to 15 μg/ml) 1 h at 37° C.) amounted to 78%. Also, the “Concentration required for half-maximal inhibition” value in test [2] (fimbriae 50 μg/ml, immobilized asialo-GM1) turned out to be 1.44 µg/mL.
